Assay results reported in patent US6030942A, “Peptides peptide analogs peptidomimetics and other small molecules useful for inhibiting the activity of ribonucleotide reductase” (The Trustees of the University of Pennsylvania, priority 1998, dated 2000).
“And” between values parts separate entries of the source, which are not always exact repeats. Equal values may be shown once. “Also recorded” adds a separate entry of the source. Read-outs that look alike come from different tables or passages of the source. Ends that are not written are not given here.

Legend:
[1] = target: T1, mammalian ribonucleotide reductase (Bos taurus, UniProt Q32LP1); details: cited from earlier work
T1 sequence (Q32LP1 1-791): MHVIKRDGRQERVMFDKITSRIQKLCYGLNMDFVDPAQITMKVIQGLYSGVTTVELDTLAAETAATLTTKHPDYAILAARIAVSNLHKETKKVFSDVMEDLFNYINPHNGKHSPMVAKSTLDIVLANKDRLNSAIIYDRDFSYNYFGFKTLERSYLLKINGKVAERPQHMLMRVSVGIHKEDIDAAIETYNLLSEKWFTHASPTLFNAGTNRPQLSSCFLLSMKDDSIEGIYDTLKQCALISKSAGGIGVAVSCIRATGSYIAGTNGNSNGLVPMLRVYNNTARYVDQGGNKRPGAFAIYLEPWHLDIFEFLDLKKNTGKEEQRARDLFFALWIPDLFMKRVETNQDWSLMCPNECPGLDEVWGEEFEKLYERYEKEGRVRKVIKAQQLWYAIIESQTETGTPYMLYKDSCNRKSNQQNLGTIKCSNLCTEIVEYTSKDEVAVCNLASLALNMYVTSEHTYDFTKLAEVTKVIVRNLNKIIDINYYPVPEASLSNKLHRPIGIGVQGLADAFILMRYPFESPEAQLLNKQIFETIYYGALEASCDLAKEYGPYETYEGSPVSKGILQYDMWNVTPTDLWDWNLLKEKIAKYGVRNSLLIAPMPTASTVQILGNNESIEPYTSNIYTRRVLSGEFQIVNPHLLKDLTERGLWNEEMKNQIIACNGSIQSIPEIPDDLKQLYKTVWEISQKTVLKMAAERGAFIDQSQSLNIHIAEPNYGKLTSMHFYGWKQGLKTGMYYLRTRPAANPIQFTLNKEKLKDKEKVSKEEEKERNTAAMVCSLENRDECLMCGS

[2] = target: T2, E. coli RR (Escherichia coli, UniProt P00452); details: cited from earlier work
T2 sequence (P00452 whole entry, looked up): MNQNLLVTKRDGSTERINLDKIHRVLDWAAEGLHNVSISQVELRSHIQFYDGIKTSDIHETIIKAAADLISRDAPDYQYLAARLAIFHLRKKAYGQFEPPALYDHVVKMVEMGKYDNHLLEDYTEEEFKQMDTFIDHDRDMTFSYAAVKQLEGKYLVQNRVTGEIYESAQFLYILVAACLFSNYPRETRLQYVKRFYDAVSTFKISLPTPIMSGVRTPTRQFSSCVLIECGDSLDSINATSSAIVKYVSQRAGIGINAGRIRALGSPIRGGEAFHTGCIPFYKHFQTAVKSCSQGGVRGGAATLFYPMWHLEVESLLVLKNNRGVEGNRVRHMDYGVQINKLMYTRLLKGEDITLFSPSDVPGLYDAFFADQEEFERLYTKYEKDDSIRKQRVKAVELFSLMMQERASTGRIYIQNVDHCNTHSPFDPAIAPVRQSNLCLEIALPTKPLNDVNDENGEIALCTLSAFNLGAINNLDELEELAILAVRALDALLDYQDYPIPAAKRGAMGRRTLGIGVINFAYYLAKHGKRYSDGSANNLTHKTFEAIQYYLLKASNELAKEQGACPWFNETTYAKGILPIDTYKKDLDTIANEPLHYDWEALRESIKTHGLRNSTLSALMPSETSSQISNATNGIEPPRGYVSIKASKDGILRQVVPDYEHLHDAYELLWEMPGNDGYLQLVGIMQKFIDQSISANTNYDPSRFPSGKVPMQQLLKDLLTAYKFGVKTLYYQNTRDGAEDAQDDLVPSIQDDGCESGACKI

[3] = target: T1, mammalian ribonucleotide reductase; test: Peptide inhibition of mammalian ribonucleotide reductase activity; type: biochemical; details: for % RI (relative inhibitory potency, (IC50 AcFTLDADF)/(IC50 peptide analog)): mean and average deviation of 2-3 determinations, others single
Description: All three methods yielded acceptable results, with the following limitations. Method 1 is useful for the assay of CDP to dCDP and ADP to dADP conversions, but is not useful for the assay of GDP reduction. It is also sensitive to large changes in the nucleotide composition of the assay medium. […] Method 2 is the easiest to perform on purified enzymes, and can be used with all four NDPs as substrates, but is difficult to use with crude enzyme, largely because contaminating phosphatase activities can skew results. Method 3 is usable with all four NDPs, but is also somewhat sensitive to large changes in the nucleotide composition of the assay medium and requires column separation at 4° C.

[4] = target: S. cerevisiae ribonucleotide reductase (Saccharomyces cerevisiae, UniProt P21524); test: Peptide inhibition of S. cerevisiae ribonucleotide reductase activity; type: biochemical; details: Table 9; read-out: IC50, Yeast RR
[5] = target: T3, RR (Mus musculus, UniProt P07742); test: Inhibition of RR by Compound 23; type: biochemical
T3 sequence (P07742 1-792): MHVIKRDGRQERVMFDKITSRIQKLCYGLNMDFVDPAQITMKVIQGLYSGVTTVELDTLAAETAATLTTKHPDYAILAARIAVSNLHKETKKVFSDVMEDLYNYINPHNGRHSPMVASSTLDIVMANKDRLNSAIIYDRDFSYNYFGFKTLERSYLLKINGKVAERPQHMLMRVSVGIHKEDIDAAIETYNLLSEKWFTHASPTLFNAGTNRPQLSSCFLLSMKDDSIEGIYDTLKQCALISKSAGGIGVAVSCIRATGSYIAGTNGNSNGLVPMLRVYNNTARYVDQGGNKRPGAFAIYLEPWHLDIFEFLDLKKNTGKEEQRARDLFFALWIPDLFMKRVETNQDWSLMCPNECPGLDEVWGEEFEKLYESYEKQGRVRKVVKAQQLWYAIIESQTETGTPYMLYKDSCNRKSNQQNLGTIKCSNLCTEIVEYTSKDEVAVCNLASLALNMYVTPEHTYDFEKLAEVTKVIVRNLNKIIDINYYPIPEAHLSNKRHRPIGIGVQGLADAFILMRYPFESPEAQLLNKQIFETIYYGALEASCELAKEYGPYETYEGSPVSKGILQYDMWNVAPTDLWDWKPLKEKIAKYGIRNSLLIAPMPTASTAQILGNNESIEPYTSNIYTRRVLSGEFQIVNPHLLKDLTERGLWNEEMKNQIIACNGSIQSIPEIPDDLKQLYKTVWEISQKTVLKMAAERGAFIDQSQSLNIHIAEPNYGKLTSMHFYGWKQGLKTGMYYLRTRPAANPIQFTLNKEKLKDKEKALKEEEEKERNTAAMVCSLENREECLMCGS
Description: (§1) Standard assays of RR activity used in the studies presented herein involve the conversion of [^3 H]-ribonucleoside diphosphate (NDP) to [^3 H]-deoxyribonucleoside diphosphate (dNDP), using dithiothreitol as the external reductant. Three methods were examined: Method 1 (Steeper et al., 1970, Anal. Biochem. 34:123-130), involving the conversion of diphosphates to nucleosides by enzymatic digestion, followed by the separation of deoxynucleoside from nucleoside on Dowex-1-borate columns; Method 2 (Moore et al., 1974, Biochemistry 13:2904-2907), involving the direct separation of dNDP from NDP on aminophenylboronate columns; Method 3 (Sato et al., 1983, Anal. Biochem. 135:431-435) involving the conversion of diphosphates to nucleosides by enzymatic digestion, followed by the separation of deoxynucleoside from nucleoside on polyethyleneimine-cellulose columns.
All three methods yielded acceptable results, with the following limitations. Method 1 is useful for the assay of CDP to dCDP and ADP to dADP conversions, but is not useful for the assay of GDP reduction. It is also sensitive to large changes in the nucleotide composition of the assay medium. Thus, it is quite useful for standard assays (purifications, tests of peptide inhibition), but difficult to apply when concentrations and substrate are widely varied. Method 2 is the easiest to perform on purified enzymes, and can be used with all four NDPs as substrates, but is difficult to use with crude enzyme, largely because contaminating phosphatase activities can skew results. Method 3 is usable with all four NDPs, but is also somewhat sensitive to large changes in the nucleotide composition of the assay medium and requires column separation at 4° C.

[6] = target: T4, mouse R1 (Mus musculus, UniProt P07742); details: cited from earlier work
T4 construct: made in house; host or cells: R1: Hi5 or Sf9 insect cells (baculovirus); R2: E. coli
T4 sequence (P07742 1-792): T3 sequence (P07742 1-792)

[7] = target: T3, RR; test: Biological Evaluation of Compound (8): RR activity; type: biochemical
Description: as §1
All three methods yielded acceptable results, with the following limitations. Method 1 is useful for the assay of CDP to dCDP and ADP to dADP conversions, but is not useful for the assay of GDP reduction. It is also sensitive to large changes in the nucleotide composition of the assay medium. Thus, it is quite useful for standard assays (purifications, tests of peptide inhibition), but difficult to apply when concentrations and substrate are widely varied. […]

[8] = target: E. coli RR (Escherichia coli, UniProt P00452); details: cited from earlier work; remark: listed apart in the source
[9] = Table 8, Dixon plots of 4-6 concentration points, ranges are two independent determinations, read-out: IC50

Chain of S. cerevisiae ribonucleotide reductase (P21524 whole entry): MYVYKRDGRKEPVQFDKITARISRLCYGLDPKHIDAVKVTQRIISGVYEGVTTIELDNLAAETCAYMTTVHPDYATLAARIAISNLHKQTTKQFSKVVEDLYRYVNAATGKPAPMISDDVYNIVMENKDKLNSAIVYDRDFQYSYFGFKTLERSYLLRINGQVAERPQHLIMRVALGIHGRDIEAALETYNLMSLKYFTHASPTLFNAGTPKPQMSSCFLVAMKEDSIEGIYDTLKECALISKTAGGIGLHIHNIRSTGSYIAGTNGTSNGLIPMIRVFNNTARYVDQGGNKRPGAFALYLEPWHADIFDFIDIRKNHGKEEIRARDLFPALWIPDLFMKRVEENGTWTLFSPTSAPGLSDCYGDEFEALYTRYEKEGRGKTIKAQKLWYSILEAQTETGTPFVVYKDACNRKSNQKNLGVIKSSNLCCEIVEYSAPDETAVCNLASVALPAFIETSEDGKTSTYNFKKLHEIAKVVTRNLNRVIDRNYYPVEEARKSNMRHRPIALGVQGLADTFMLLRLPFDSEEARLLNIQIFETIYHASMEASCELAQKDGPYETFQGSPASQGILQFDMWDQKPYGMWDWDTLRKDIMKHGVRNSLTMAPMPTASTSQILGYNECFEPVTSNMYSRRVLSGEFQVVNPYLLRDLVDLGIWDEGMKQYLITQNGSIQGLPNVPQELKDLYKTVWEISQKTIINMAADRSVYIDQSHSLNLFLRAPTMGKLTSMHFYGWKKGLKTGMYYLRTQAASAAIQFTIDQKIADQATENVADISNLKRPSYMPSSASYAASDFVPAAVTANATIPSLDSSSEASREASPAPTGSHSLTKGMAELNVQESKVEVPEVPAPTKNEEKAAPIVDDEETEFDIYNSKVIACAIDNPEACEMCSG

Compound: DDLSNFQL [reference compound]
- Inhibition of mRR [1]: does not inhibit mRR
- Inhibition of E. coli RR [2]: inhibits eRR

Compound: FTLDADF [FTLDADF, Phe-Thr-Leu-Asp-Ala-Asp-Phe]
- IC50 [3, 9]: > 400 µM

Compound: Ac-FLDADF [Ac-F-LDADF]
- IC50 [3, 9]: 412 µM

Compound: Ac-TFNEDF [AcTFNEDF]
- IC50 [4]: 600 µM

Compound: Ac-FTLDAEF [Ac-FTLDAEF]
- Fold decrease in RI relative to N-AcFTLDADF ([3]; Table 8): > 50 fold
- % RI (relative inhibitory potency, (IC50 AcFTLDADF)/(IC50 peptide analog)) ([3]; Table 8): 1.7 ± 0.15%

Compound: Ac-FSLDADF [Ac-FSLDADF, Acetyl-Phe-Ser-Leu-Asp-Ala-Asp-Phe]
- IC50 ([3]; Table 8, Dixon plots of 4-6 concentration points, ranges are two independent determinations): 40 to 42 µM

Compound: SFTLDADF
- IC50 [3, 9]: 80 µM

Compound: CC(=O)N[C@@H](Cc1ccccc1)C(=O)NC[C@@H]1O[C@@H]([C@@H](C)C(=O)N[C@@H](CC(=O)O)C(=O)N[C@@H](Cc2ccccc2)C(=O)O)[C@@H](OCC(=O)O)C[C@H]1OCC(C)C [Compound 23]
- Fold decrease in RI relative to N-AcFTLDADF ([3]; Table 8): three to four
- Residual Relative Activity ([5]; 30 μM Compound 23): 86 ± 8 percentage
- Residual Relative Activity ([5]; 100 μM Compound 23): 73 ± 6 percentage
- Residual Relative Activity ([5]; 300 μM Compound 23): 64 ± 6 percentage
- Residual Relative Activity ([5]; 500 μM Compound 23): 48 ± 4 percentage
- Residual Relative Activity ([5]; 1000 μM Compound 23): 32 ± 6 percentage

Compound: Acetyl-(p-amino-Phe)-Thr-Leu-Asp-Ala-Asp-Phe [Ac-F(4'-NH2)TLDADF]
- Fold decrease in RI relative to N-AcFTLDADF ([3]; Table 8): five to ten
- % RI (relative inhibitory potency, (IC50 AcFTLDADF)/(IC50 peptide analog)) ([3]; Table 8): 10%

Compound: Ac-FTFDADF [Ac-FTFDADF]
- % RI (relative inhibitory potency, (IC50 AcFTLDADF)/(IC50 peptide analog)) ([3]; Table 8): 18 ± 4.2%

Compound: Ac-YTLDADF [Ac-YTLDADF]
- Fold decrease in RI relative to N-AcFTLDADF ([3]; Table 8): five to ten
- % RI (relative inhibitory potency, (IC50 AcFTLDADF)/(IC50 peptide analog)) ([3]; Table 8): 7%
- Fold lower affinity for mR1 than AcFTLDADF [6]: 15 fold

Compound: FA-DAP-C(N)FTLDADF: folate-peptide conjugate: γ-1,5-diaminopentane folate condensate coupled to thiol of NCFTLDADF via sulfo-MBS (not fully specified (residue 2))
- RR inhibition compared with AcFTLDADF [3]: comparable to AcFTLDADF

Compound: Ac-FTLDADFAA
- % RI (relative inhibitory potency, (IC50 AcFTLDADF)/(IC50 peptide analog)) ([3]; Table 8): 2.1%

Compound: Acetyl-(p-azido-Phe)-Thr-Leu-Asp-Ala-Asp-Phe [Ac-F(4'-N3)TLDADF]
- Fold decrease in RI relative to N-AcFTLDADF ([3]; Table 8): five to ten
- % RI (relative inhibitory potency, (IC50 AcFTLDADF)/(IC50 peptide analog)) ([3]; Table 8): 10%

Compound: Ac-FTFNEDF [AcFTFNEDF]
- IC50 ([3]; Table 9, read-out: IC50, Mammalian RR): 100 µM

Compound: Ac-SFTLDADF
- % RI (relative inhibitory potency, (IC50 AcFTLDADF)/(IC50 peptide analog)) ([3]; Table 8): 100%
- Affinity for mR1 compared with AcFTLDADF [6]: same affinity

Compound: Ac-FTLDADF [Ac-FTLDADF, Acetyl-Phe-Thr-Leu-Asp-Ala-Asp-Phe]
- IC50 [3, 9]: 8 to 20 µM
- RR Activity ([7]; compound at 10 μM): 0.39 ± 0.07
- RR Activity ([7]; compound at 66 μM): 0.12
- IC50 ([8]; E. coli R1 protein / RR): > 1000 µM
- Inhibition of E. coli RR [8]: at best a very poor inhibitor of eRR; also recorded: failure to significantly inhibit E. coli RR up to concentrations of 1 mM

Compound: Ac-FTLDLDF [Ac-FTLDLDF]
- % RI (relative inhibitory potency, (IC50 AcFTLDADF)/(IC50 peptide analog)) ([3]; Table 8): 35%

Compound: Ac-LDADF [Ac-LDADF]
- IC50 [3, 9]: > 400 µM

Compound: Ac-FTVDADF [Ac-FTVDADF]
- % RI (relative inhibitory potency, (IC50 AcFTLDADF)/(IC50 peptide analog)) ([3]; Table 8): 35%

Compound: Ac-FTLDANF [Ac-FTLDANF]
- Fold decrease in RI relative to N-AcFTLDADF ([3]; Table 8): three to four
- % RI (relative inhibitory potency, (IC50 AcFTLDADF)/(IC50 peptide analog)) ([3]; Table 8): 23 ± 1.0%

Compound: Ac-FTLAADF [Ac-FTLAADF]
- Fold decrease in RI relative to N-AcFTLDADF ([3]; Table 8): > 30 fold
- % RI (relative inhibitory potency, (IC50 AcFTLDADF)/(IC50 peptide analog)) ([3]; Table 8): 2.9 ± 0.4%

Compound: Ac-FTLNADF [Ac-FTLNADF, Acetyl-Phe-Thr-Leu-Asn-Ala-Asp-Phe]
- IC50 [3, 9]: 25 to 29 µM

Compound: Ac-FALDADF [Ac-FALDADF, Acetyl-Phe-Ala-Leu-Asp-Ala-Asp-Phe]
- IC50 [3, 9]: 35 to 40 µM

Compound: Ac-NSFTLDADF
- IC50 [3, 9]: 9 to 15 µM

Compound: Ac-FTADADF [Ac-FTADADF]
- % RI (relative inhibitory potency, (IC50 AcFTLDADF)/(IC50 peptide analog)) ([3]; Table 8): 4.9 ± 0.60%

Compound: Ac-FTLDADL [Ac-FTLDADL]
- Fold decrease in RI relative to N-AcFTLDADF ([3]; Table 8): over 40 fold
- % RI (relative inhibitory potency, (IC50 AcFTLDADF)/(IC50 peptide analog)) ([3]; Table 8): 3% and < 3%
